Measured values published in patent US20240208986A1, “PHENYL AZEPINES AS RIPK1 INHIBITORS AND METHODS OF USE THEREOF” (Merck Sharp & Dohme LLC, priority 2021, published 2024).

Biological target: RIPK1 (recombinant GST-RIPK1 kinase domain, residues 1-327) (Homo sapiens (Human), UniProt Q13546)
Experiment: RIPK1-ADP-Glo Enzymatic Assay
Format: biochemical
Conditions: 25 nM GST-RIPK1, 300 μM ATP, 3 μM dephosphorylated-MBP; 30 minutes pre-incubation, 150 minutes reaction; ten-point titration
Protocol: The enzymatic activity of RIPK1 is measured using an assay derived from ADP-Glo kit (™Promega), which provides a luminescent-based ADP detection system. Specifically, the ADP generated by RIPK1 kinase is proportionally detected as luminescent signals in a homogenous fashion. In this context, the assessment of the inhibitory effect of small molecules (EC50) is measured by the effectiveness of the compounds to inhibit the ATP to ADP conversion by RIPK1.
In this assay, the potency (EC50) of each compound was determined from a ten-point (1:3 serial dilution; top compound concentration of 100000 nM) titration curve using the following outlined procedure. To each well of a white ProxiPlus 384 well-plate, 30 nL of compound (1% DMSO in final assay volume of 3 μL) was dispensed, followed by the addition of 2 μL of 1× assay buffer (25 mM Hepes 7.3, 20 mM MgCl2, 50 mM NaCl, 1 mM DTT, 0.005% Tween20, and 0.02% BSA) containing 37.5 nM of GST-RIPK1 (recombinant GST-RIPK1 kinase domain (residues 1-327) enzyme produced from baculovirus-transfected Sf21 cells: MW=62 kDa). Plates were placed in an ambient temperature humidified chamber for a 30 minutes pre-incubation with compound. Subsequently, each reaction was initiated by the addition of 1 μL 1× assay buffer containing 900 μM ATP and 3 μM dephosphorylated-MBP substrate. The final reaction in each well of 3 μL consists of 25 nM of GST-RIPK1, 300 μM ATP, and 3 μM dephosphorylated-MBP. Kinase reactions were allowed to proceed for 150 minutes prior to adding ADP-Glo reagents per Promega's outlined kit protocol. Dose-response curves were generated by plotting percent effect (% product conversion; Y-axis) vs. Log10 compound concentrations (X-axis). EC50 values were calculated using a non-linear regression, four-parameters sigmoidal dose-response model.

Chain of RIPK1 (recombinant GST-RIPK1 kinase domain, residues 1-327) (Q13546 1-327): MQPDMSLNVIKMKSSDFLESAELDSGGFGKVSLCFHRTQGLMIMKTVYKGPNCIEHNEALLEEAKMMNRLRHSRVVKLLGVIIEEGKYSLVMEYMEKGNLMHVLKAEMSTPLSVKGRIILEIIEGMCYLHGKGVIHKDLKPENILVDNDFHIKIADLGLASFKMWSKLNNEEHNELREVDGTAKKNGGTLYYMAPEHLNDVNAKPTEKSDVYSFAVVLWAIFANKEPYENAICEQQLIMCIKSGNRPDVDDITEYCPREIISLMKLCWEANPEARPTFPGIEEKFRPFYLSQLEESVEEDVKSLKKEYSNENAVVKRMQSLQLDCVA

Structure (SMILES) | IC50
CC1(C(=O)N2C[C@@H]3C[C@H]2c2ccccc2O3)CC1(Cl)Cl (mixture of isomers) [Compound 1-20, [(R and S)-2,2-dichloro-1-methylcyclopropyl]-[(2S,5S)-2,3-dihydro-2,5-methano-1,4-benzoxazepin-4(5H)-yl]methanone] | 0.062 µM
CC1(C(=O)N2C[C@@H]3C[C@H]2c2ccccc2O3)CC1(F)F (mixture of isomers) [Compound 1-14, [(R and S)-2,2-difluoro-1-methylcyclopropyl]-[(2S,5S)-2,3-dihydro-2,5-methano-1,4-benzoxazepin-4(5H)-yl]methanone] | 0.313 µM
CC1(C)C2CCC1(C(=O)N1C[C@@H]3C[C@H]1c1ccccc1O3)CC2 [Compound 1-45, [(2S,5S)-2,3-dihydro-2,5-methano-1,4-benzoxazepin-4(5H)-yl](7,7-dimethylbicyclo[2.2.1]heptan-1-yl)methanone] | 0.168 µM
CC1(C(=O)N2C[C@@H]3C[C@H]2c2ccccc2O3)CCCCC1 [Compound 1-5, ((2S,5S)-2,3-dihydro-2,5-methanobenzo[f][1,4]oxaze-pin-4(5H)-yl)(1-methylcyclohexyl)methanone] | 0.042 µM
CC(C)(C#N)C(=O)N1C[C@@H]2C[C@H]1c1ccccc1O2 [Compound 1-59, 3-[(2S,5S)-2,3-dihydro-2,5-methano-1,4-benzoxazepin-4(5H)-yl]-2,2-dimethyl-3-oxopropanenitrile] | 0.159 µM
CC(C)(CC#N)C(=O)N1C[C@@H]2C[C@H]1c1ccccc1O2 [Compound 1-57, 4-[(2S,5S)-2,3-dihydro-2,5-methano-1,4-benzoxazepin-4(5H)-yl]-3,3-dimethyl-4-oxobutanenitrile] | 0.056 µM
CC1(C(=O)N2C[C@@H]3C[C@H]2c2ccccc2O3)CCC1 [Compound 1-3, ((2S,5S)-2,3-dihydro-2,5-methanobenzo[f][1,4]oxaze-pin-4(5H)-yl)(1-methylcyclobutyl)methanone] | 0.097 µM
O=C(N1C[C@@H]2C[C@H]1c1ccccc1O2)C12CCC(C(F)(F)F)(CC1)CC2 [Compound 1-53, [(2S,5S)-2,3-dihydro-2,5-methano-1,4-benzoxazepin-4(5H)-yl][4-(trifluoromethyl)bicyclo [2.2.2]octan-1-yl]methanone] | 0.51 µM
O=C(N1C[C@@H]2C[C@H]1c1ccccc1O2)C1(F)CCCCC1 [Compound 1-9, ((2S,5S)-2,3-dihydro-2,5-methanobenzo[f][1,4]oxaze-pin-4(5H)-yl)(1-fluorocyclohexyl)methanone] | 0.381 µM
CC12CC(C(=O)N3C[C@@H]4C[C@H]3c3ccccc3O4)(CO1)C2 [Compound 1-42, [(2S,5S)-2,3-dihydro-2,5-methano-1,4-benzoxazepin-4(5H)-yl](1-methyl-2-oxabicyclo[2.1.1]hexan-4-yl)methanone] | 0.922 µM
O=C(N1C[C@@H]2C[C@H]1c1ccccc1O2)C12CC(C(F)F)(C1)C2 [Compound 1-60, [3-(difluoromethyl)bicyclo [1.1.1]pentan-1-yl][(2S,5S)-2,3-dihydro-2,5-methano-1,4-benzoxazepin-4(5H)-yl]methanone] | 0.512 µM
CN(C)C1(C(=O)N2C[C@@H]3C[C@H]2c2ccccc2O3)CCC1 [Compound 1-25, [(2S,5S)-2,3-dihydro-2,5-methano-1,4-benzoxazepin-4(5H)-yl][1-(dimethylamino)cyclobutyl] methanone] | 0.14 µM
CC1(C(=O)N2C[C@@H]3C[C@H]2c2ccccc2O3)CC(F)(F)C1 [Compound 1-31, (3,3-difluoro-1-methylcyclobutyl)[(2S,5S)-2,3-dihydro-2,5-methano-1,4-benzoxazepin-4(5H)-yl]methanone] | 0.157 µM
CC(F)(F)C(C)(C)C(=O)N1C[C@@H]2C[C@H]1c1ccccc1O2 [Compound 1-17, 1-[(2S,5S)-2,3-dihydro-2,5-methano-1,4-benzoxazepin-4(5H)-yl]-3,3-difluoro-2,2-dimethylbutan-1-one] | 0.047 µM
CC1(C)C(C(=O)N2C[C@@H]3C[C@H]2c2ccccc2O3)C1(C)C [Compound 1-15, [(2S,5S)-2,3-dihydro-2,5-methano-1,4-benzoxazepin-4(5H)-yl](2,2,3,3-tetramethylcyclopropyl) methanone] | 0.981 µM
O=C(N1C[C@@H]2C[C@H]1c1ccccc1O2)C12CCC(CC1)C2 [Compound 1-4, bicyclo[2.2.1]heptan-1-yl((2S,5S)-2,3-dihydro-2,5-methanobenzo[f][1,4]oxaze-pin-4(5H)-yl)methanone] | 0.033 µM
N#CC12CCC(C(=O)N3C[C@@H]4C[C@H]3c3ccccc3O4)(CC1)CC2 [Compound 1-47, 4-[(2S,5S)-2,3-dihydro-2,5-methano-1,4-benzoxazepine-4(5H)-carbonyl]bicyclo[2.2.2] octane-1-carbonitrile] | 0.281 µM
C[C@H]1CC[C@@](C)(C(=O)N2C[C@@H]3C[C@H]2c2ccccc2O3)C1(C)C (racemic) [Compound 1-32, [(2S,5S)-2,3-dihydro-2,5-methano-1,4-benzoxazepin-4(5H)-yl][(1R,3S and 1S,3R)-1,2,2,3-tetramethylcyclopentyl] methanone] | 0.391 µM
O=C(N1C[C@@H]2C[C@H]1c1ccccc1O2)C12CC3CC(CC(C3)C1)C2 [Compound 1-23, [(2S,5S)-2,3-dihydro-2,5-methano-1,4-benzoxazepin-4(5H)-yl][(3R,5R,7R)-tricyclo[3.3.1.1~3,7~]decan-1-yl]methanone] | 0.234 µM
O=C(N1C[C@@H]2C[C@H]1c1ccccc1O2)C1(C(F)(F)F)CCCC1 [Compound 1-26, [(2S,5S)-2,3-dihydro-2,5-methano-1,4-benzoxazepin-4(5H)-yl][1-(trifluoromethyl)cyclopentyl]methanone] | 0.06 µM
O=C(N1C[C@@H]2C[C@H]1c1ccccc1O2)C12CCC(CC1)CC2 [Compound 1-43, (bicyclo[2.2.2]octan-1-yl)[(2S,5S)-2,3-dihydro-2,5-methano-1,4-benzoxazepin-4(5H)-yl]methanone] | 0.018 µM
CC1(C(=O)N2C[C@@H]3C[C@H]2c2ccccc2O3)CCN(c2cc(C#N)ncn2)CC1 [Compound 1-48, 6-{4-[(2S,5S)-2,3-dihydro-2,5-methano-1,4-benzoxazepine-4(5H)-carbonyl]-4-methylpiperidin-1-yl}pyrimidine-4-carbonitrile] | 0.375 µM

Further lines, results first:

IC50 | Structure (SMILES)
0.023 µM | CC(F)(F)C(C)(C)C(=O)N1C[C@@H]2C[C@H]1c1cc(F)ccc1O2 [Compound 2-13, 3,3-difluoro-1-[(2S,5S)-7-fluoro-2,3-dihydro-2,5-methano-1,4-benzoxazepin-4(5H)-yl]-2,2-dimethylbutan-1-one]
0.019 µM | N#CC12CCC(C(=O)N3C[C@@H]4C[C@H]3c3cc(F)cc(F)c3O4)(C1)C2 [Compound 2-36, 4-((2S,5S)-7,9-difluoro-2,3,4,5-tetrahydro-2,5-methanobenzo[f][1,4]oxaze-pine-4-carbonyl)bicyclo[2.1.1] hexane-1-carbonitrile]
0.049 µM | CC(C)(CC#N)C(=O)N1C[C@@H]2C[C@H]1c1ccc(Cl)cc1O2 [Compound 2-23, 4-((2S,5S)-8-chloro-2,3-dihydro-2,5-methanobenzo[f][1,4]oxaze-pin-4(5H)-yl)-3,3-dimethyl-4-oxobutanenitrile]
0.055 µM | CC1(C(=O)N2C[C@@H]3C[C@H]2c2cc(F)ccc2O3)CC(C#N)C1 (stereo partly drawn) [Compound 2-29, 3-((2S,5S)-7-fluoro-2,3,4,5-tetrahydro-2,5-methanobenzo[f][1,4]oxaze-pine-4-carbonyl)-3-methylcyclobutane-1-carbonitrile]
2.41 µM | C[C@@]12C[C@@H](c3ccccc3O1)N(C(=O)C13CCC(C(F)(F)F)(CC1)C3)C2 (single isomer, unassigned) [Compound 3-9]
0.388 µM | CC(C)(C(=O)N1C[C@@H]2C[C@H]1c1ccc(C#N)cc1O2)C(F)F [Compound 2-22, (2S,5S)-4-(3,3-difluoro-2,2-dimethylpropanoyl)-2,3,4,5-tetrahydro-2,5-methano-1,4-benzoxazepine-8-carbonitrile]
0.809 µM | N#CCC1(C(=O)N2C[C@@H]3C[C@H]2c2cccc(F)c2O3)CCC1 [Compound 2-28, {1-[(2S,5S)-9-fluoro-2,3-dihydro-2,5-methano-1,4-benzoxazepine-4(5H)-carbonyl]cyclobutyl} acetonitrile]
0.039 µM | O=C(N1C[C@@H]2C[C@H]1c1cc(Cl)ccc1O2)C12CCC(F)(CC1)C2 [Compound 2-32, ((2S,5S)-7-chloro-2,3-dihydro-2,5-methanobenzo[f][1,4]oxaze-pin-4(5H)-yl)(4-fluorobicyclo[2.2.1]heptan-1-yl)methanone]
0.012 µM | CC(C)(C(=O)N1C[C@@H]2C[C@H]1c1cc(F)cc(F)c1O2)C(F)F [Compound 2-26, 1-[(2S,5S)-7,9-difluoro-2,3-dihydro-2,5-methano-1,4-benzoxazepin-4(5H)-yl]-3,3-difluoro-2,2-dimethylpropan-1-one]
